Laboratory results from ChEMBL document CHEMBL1201862, “PubChem BioAssay data set” (2004).
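Exposure lasted 48 hours, with cells grown in 96-well plates and compounds tested at five concentrations. Abbreviation: GI50, concentration required for 50% inhibition of growth.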 Activity calls are given as the source filed them. Cut-off read from the data, not from the text of the source: active = GI50 up to about 1.1 µM and inactive = higher.

Tests used:
Assay in all cases: DTP human tumour cell line panel, 48 h
786-0 = tested on: 786-0
A549 = tested on: A549
ACHN = tested on: ACHN
CAKI-1 = tested on: CAKI-1
CCRF-CEM = tested on: CCRF-CEM
COLO 205 = tested on: COLO 205
DLD-1 = tested on: DLD-1
DMS-114 = tested on: DMS-114
DMS-273 = tested on: DMS-273
EKVX = tested on: EKVX
HCC 2998 = tested on: HCC 2998
HCT-116 = tested on: HCT-116
HCT-15 = tested on: HCT-15
HL-60 = tested on: HL-60
HOP-18 = tested on: HOP-18
HOP-92 = tested on: HOP-92
HT-29 = tested on: HT-29
IGROV-1 = tested on: IGROV-1
K562 = tested on: K562
KM12 = tested on: KM12
LOX IMVI = tested on: LOX IMVI
LXFL 529 = tested on: LXFL 529
M14 = tested on: M14
M19-MEL = tested on: M19-MEL
MOLT-4 = tested on: MOLT-4
Malme-3M = tested on: Malme-3M
NCI-H226 = tested on: NCI-H226
NCI-H23 = tested on: NCI-H23
NCI-H460 = tested on: NCI-H460
OVCAR-3 = tested on: OVCAR-3
OVCAR-8 = tested on: OVCAR-8
RPMI-8226 = tested on: RPMI-8226
RXF 393 = tested on: RXF 393
RXF 631 = tested on: RXF 631
SF-295 = tested on: SF-295
SF-539 = tested on: SF-539
SK-MEL-28 = tested on: SK-MEL-28
SK-MEL-5 = tested on: SK-MEL-5
SK-OV-3 = tested on: SK-OV-3
SN12C = tested on: SN12C
SNB-75 = tested on: SNB-75
SNB-78 = tested on: SNB-78
SW-620 = tested on: SW-620
TK-10 = tested on: TK-10
U-251 = tested on: U-251
UACC-257 = tested on: UACC-257
UACC-62 = tested on: UACC-62
UO-31 = tested on: UO-31
KM-20L2 = tested on: KM-20L2
NCI-H522 = tested on: NCI-H522
OVCAR-4 = tested on: OVCAR-4
OVCAR-5 = tested on: OVCAR-5
SK-MEL-2 = tested on: SK-MEL-2
SNB-19 = tested on: SNB-19
SR = tested on: SR
XF498 = tested on: XF498

SMILES: Oc1cccc(-c2cccc(O)n2)n1
- GI50 (786-0): > 100 µM (inactive)
- GI50 (A549): > 100 µM (inactive)
- GI50 (ACHN): > 100 µM (inactive)
- GI50 (CAKI-1): > 100 µM (inactive)
- GI50 (CCRF-CEM): > 100 µM (inactive)
- GI50 (COLO 205): > 100 µM (inactive)
- GI50 (DLD-1): > 100 µM (inactive)
- GI50 (DMS-114): > 100 µM (inactive)
- GI50 (DMS-273): > 100 µM (inactive)
- GI50 (EKVX): > 100 µM (inactive)
- GI50 (HCC 2998): > 100 µM (inactive)
- GI50 (HCT-116): > 100 µM (inactive)
- GI50 (HCT-15): > 100 µM
- GI50 (HL-60): > 100 µM (inactive)
- GI50 (HOP-18): > 100 µM (inactive)
- GI50 (HOP-92): 26.3 µM (inactive)
- GI50 (HT-29): > 100 µM (inactive)
- GI50 (IGROV-1): > 100 µM (inactive)
- GI50 (K562): > 100 µM (inactive)
- GI50 (KM12): > 100 µM (inactive)
- GI50 (LOX IMVI): > 100 µM (inactive)
- GI50 (LXFL 529): > 100 µM (inactive)
- GI50 (M14): > 100 µM (inactive)
- GI50 (M19-MEL): > 100 µM (inactive)
- GI50 (MOLT-4): > 100 µM (inactive)
- GI50 (Malme-3M): > 100 µM (inactive)
- GI50 (NCI-H226): > 100 µM (inactive)
- GI50 (NCI-H23): > 100 µM (inactive)
- GI50 (NCI-H460): > 100 µM (inactive)
- GI50 (OVCAR-3): > 100 µM (inactive)
- GI50 (OVCAR-8): > 100 µM (inactive)
- GI50 (RPMI-8226): > 100 µM (inactive)
- GI50 (RXF 393): > 100 µM (inactive)
- GI50 (RXF 631): > 100 µM (inactive)
- GI50 (SF-295): > 100 µM (inactive)
- GI50 (SF-539): > 100 µM (inactive)
- GI50 (SK-MEL-28): > 100 µM (inactive)
- GI50 (SK-MEL-5): > 100 µM (inactive)
- GI50 (SK-OV-3): > 100 µM (inactive)
- GI50 (SN12C): > 100 µM (inactive)
- GI50 (SNB-75): > 100 µM (inactive)
- GI50 (SNB-78): > 100 µM (inactive)
- GI50 (SW-620): > 100 µM (inactive)
- GI50 (TK-10): > 100 µM (inactive)
- GI50 (U-251): > 100 µM (inactive)
- GI50 (UACC-257): > 100 µM (inactive)
- GI50 (UACC-62): > 100 µM (inactive)
- GI50 (UO-31): > 100 µM (inactive)

SMILES: COc1ccccc1/C=C1\N=C(C)OC1=O
- GI50 (CAKI-1): > 100 µM (inactive)
- GI50 (CCRF-CEM): 56 µM (inactive)
- GI50 (COLO 205): > 100 µM (inactive)
- GI50 (DLD-1): > 100 µM (inactive)
- GI50 (HCC 2998): > 100 µM (inactive)
- GI50 (HCT-15): > 100 µM
- GI50 (HOP-92): > 100 µM (inactive)
- GI50 (HT-29): > 100 µM (inactive)
- GI50 (IGROV-1): > 100 µM (inactive)
- GI50 (K562): > 100 µM (inactive)
- GI50 (KM-20L2): > 100 µM (inactive)
- GI50 (KM12): > 100 µM (inactive)
- GI50 (M14): > 100 µM (inactive)
- GI50 (M19-MEL): > 100 µM (inactive)
- GI50 (MOLT-4): > 100 µM (inactive)
- GI50 (Malme-3M): > 100 µM (inactive)
- GI50 (NCI-H23): > 100 µM (inactive)
- GI50 (NCI-H522): > 100 µM (inactive)
- GI50 (OVCAR-3): > 100 µM (inactive)
- GI50 (OVCAR-4): > 100 µM (inactive)
- GI50 (OVCAR-5): > 100 µM (inactive)
- GI50 (OVCAR-8): > 100 µM (inactive)
- GI50 (RXF 393): > 100 µM (inactive)
- GI50 (RXF 631): > 100 µM (inactive)
- GI50 (SF-295): > 100 µM (inactive)
- GI50 (SK-MEL-28): > 100 µM (inactive)
- GI50 (SK-MEL-2): > 100 µM (inactive)
- GI50 (SK-MEL-5): > 100 µM (inactive)
- GI50 (SK-OV-3): > 100 µM (inactive)
- GI50 (SN12C): > 100 µM (inactive)
- GI50 (SNB-19): > 100 µM (inactive)
- GI50 (SNB-78): > 100 µM (inactive)
- GI50 (SR): > 100 µM (inactive)
- GI50 (SW-620): > 100 µM (inactive)
- GI50 (TK-10): > 100 µM (inactive)
- GI50 (U-251): > 100 µM (inactive)
- GI50 (UACC-62): > 100 µM (inactive)
- GI50 (UO-31): > 100 µM (inactive)
- GI50 (XF498): > 100 µM (inactive)
